In patent US10647680B2, “Urea compound, preparation method therefor and medical use thereof” (Ancureall Pharmaceutical (Shanghai) Co., Ltd., priority 2016, dated 2020) one finds GI50 data, which are given here for nine compounds.

Counter-ions that a name gives are not always drawn.

In test [1] the test system is KG-1 (expressing FGFR1OP2-FGFR1 fusion protein). The test is described as follows: In vitro growth inhibition (GI50), KG-1. In kind it is cell-based. As to conditions: Homo sapiens; Cell lines of leukemia; read-out: GI 50 KG-1 FGFR1OP 2-FGFR1. The text has this:
(§1) 1. Cell Lines and Cell Cultures
(§2) Tumor cell line is an effective cell model for studying the inhibition of tumor cell growth or proliferation in vitro. In the present invention, a representative tumor cell line was selected to determine the cell growth inhibition activity of the present compound. All cell lines used were from ATCC, DSMZ, and the Cell Bank of the Chinese Academy of Sciences. Cell culture conditions and methods were in accordance with the requirements of each cell line. Cells were subcultured in vitro for no more than 3 passages each time, and as required, single-clone purification and identification of cell lines could be carried out.
(§3) The cell culture media used were RPMI1640 (Gibco), MEM (Gibco), McCOY'S5A (Gibco), and IMDM (Gibco). The complete medium was prepared by supplement with 5˜20% fetal calf serum (Gibco), 1% double-antibiotics (10000 units/mL penicillin and 10000 units/mL), 2 mM glutamine or 1 mM sodium pyruvate, respectively.
(§4) The human acute […] monomonocyte leukemia cell line MV4-11 (FLT3 ITD+/+ mutant type, ATCC) was cultured in a complete medium comprising 1×IMDM and 10% FBS. Human acute myeloid leukemia cell line MOLM-13 (FLT3 ITD+/− mutant type, DSMZ), human acute lymphoblastic leukemia cell line RS4; 11 (FLT3 wild type, ATCC), human chronic granulocytic leukemia cell line K562 (FLT3 negative expression, positive expression of BCR-ABL fusion protein, ATCC), human promyelocytic leukemia cell line HL-60 (FLT3 wild type, ATCC), human B lymphoblastic leukemia cell line RAMOS (positive expression of Brutons tyrosine protein kinase, ATCC), human acute myeloid leukemia cell line Kasumi-1 (c-Kit N822K mutant type, ATCC), human acute monocytic leukemia cell line U937 (FLT3 wild-type, ATCC), human acute myeloid leukemia cell line OCI-AML3 (NPMc+ mutant type, ATCC), human acute myeloid leukemia cell line KG-1 (expressing FGFR1OP2-FGFR1 fusion protein, ATCC) were cultured in a complete medium comprising 1×RPMI1640 and 10% FBS, respectively.
(§5) The suspension cells were collected by centrifugation. The supernatant was discarded and the cell pellet was resuspended and counted. Different cell concentrations (5˜10×10^4 cells/mL) were prepared according to the growth cycle of each cell line and then seeded on a 96-well plate (Corning), 100 μL/well. The cells were incubated overnight at 37° C., 5% CO2. The compounds were added to the cells on the second day with 2 wells in parallel. The final concentration of organic solvent shall not exceed 1%. The cells were continually incubated for 3 to 5 days, and then subjected to MTT assay.
(§6) The compound was stored in a concentration of 10 mM at −20° C. and diluted to 2- or 10-fold series prior to use.
(§7) Dojindo CCK8 reagent kit was used as MTT assay. […] FC meter was used as microplate reader.
(§8) For adherent cells, culture medium was removed and immediately replaced with the fresh prepared medium which contains 10% CCK8 reagent (100 μL/well). For the suspension cells, CCK8 was directly added to 10% of the final concentration. The cells were continually incubated for 1˜4 h. […] The experiment was independently repeated 1˜3 times, and subject to biological statistical analysis. 4. Experimental Results
(§9) The initial concentration of the compound was 5,000 nM, then it was serially diluted by 2-fold or 10-fold to 0.01 nM. The GI50 value of each test compound was calculated according to the GI50 assay and calculation method. The experiments were repeated 1 to 3 times, and data were subjected to biological statistical analysis.

In test [2] the test system is OCI-AML3 (NPMc+ mutant type). The test is described as follows: In vitro growth inhibition (GI50), OCI-AML3. In kind it is cell-based. As to conditions: Homo sapiens, OCI-AML-3; Cell lines of leukemia; read-out: GI 50 OCI- AML3 NPMc+.
Excerpt: as §1, §2, §3, §4, §5, §6, §7, §8, §9

Test [3] has as its system RAMOS (positive expression of Brutons tyrosine protein kinase). Nature of the test: In vitro growth inhibition (GI50), RAMOS. It counts as cell-based. As to conditions: Homo sapiens, Cell lines of leukemia, read-out: GI 50 Ramos BTK.
Excerpt: as §1, §2, §3, §4, §5, §6, §7, §8, §9

For test [4], the system named is Kasumi-1 (c-Kit N822K mutant type). Nature of the test: In vitro growth inhibition (GI50), Kasumi-1. In kind it is cell-based. As to conditions: Homo sapiens, Cell lines of leukemia, read-out: GI 50 Kasumi-1 Kit (N822K).
Excerpt: as §1, §2, §3, §4
as §5, with “Adherent cells were digested with 0.25% pancreatin-EDTA (Gibco). The suspension” for “The suspension”
(§10) The compound of the present invention and the control compound were dissolved in DMSO (Sigma) respectively, with the purity of more than 98%. The compound was stored in a concentration of 10 mM at −20° C. and diluted to 2- or 10-fold series prior to use.
(§11) Dojindo CCK8 reagent kit was used as MTT assay. THERMO […] FC meter was used as microplate reader.
(§12) For adherent cells, culture medium was removed and immediately replaced with the fresh prepared medium which contains 10% CCK8 reagent (100 μL/well). For the suspension cells, CCK8 was directly added to 10% of the final concentration. The cells were continually incubated for 1˜4 h. When a dark yellow color could be observed in the solvent control wells, the absorbance value at OD450 nm was measured and the cell growth rate was calculated according to the following formula: Cell Growth Rate (%)=100*(T−T0)/(C−T0) T=optical density of drug treatment cell well—optical density of blank control well; T0=optical density of cell well before drug treatment—optical density of blank control well; C=optical density of cell well of solvent control group—optical density of blank control well. The concentration value of 50% inhibition of cell growth (GI50) was calculated according to the drug concentration and cell growth rate curve. […]

The test system of test [5] is HL-60 (FLT3 wild type). Nature of the test: In vitro growth inhibition (GI50), HL-60. In kind it is cell-based. As to conditions: Homo sapiens, Cell lines of leukemia, read-out: GI 50 HL60 FLT3 (WT).
Excerpt: as §1, §2, §3, §4
as §5, with “Adherent cells were digested with 0.25% pancreatin-EDTA (Gibco). The suspension” for “The suspension”
as §10, §11, §12

Test [6] relates to U937 (FLT3 wild-type). Nature of the test: In vitro growth inhibition (GI50), U937. As to conditions: Homo sapiens, U-937; Cell lines of leukemia; read-out: GI 50 U937 FLT 3(WT). It counts as cell-based.
Excerpt: as §1, §2, §3, §4, §5, §6, §7, §8, §9

For test [7], the system named is MV4-11 (FLT3 ITD+/+ mutant type). The test is described as follows: In vitro growth inhibition (GI50), MV4-11. In kind it is cell-based, human. As to conditions: Homo sapiens, MV4-11; Cell lines of leukemia; read-out: GI 50 MV4-11 FLT3 (ITD +/+).
Excerpt: as §1, §2, §3, §4, §5, §6, §7, §8, §9

Test [8] deals with K562 (FLT3 negative expression, positive expression of BCR-ABL fusion protein). Nature of the test: In vitro growth inhibition (GI50), K562. In kind it is cell-based. As to conditions: Homo sapiens, Cell lines of leukemia, read-out: GI 50 K562 BCR-ABL.
Excerpt: as §1, §2, §3, §4, §5, §6, §7, §8, §9

The subject of test [9] is RS4; 11 (FLT3 wild type). The test is described as follows: In vitro growth inhibition (GI50), RS4; 11. In kind it is cell-based, human. As to conditions: Homo sapiens, RS4-11; Cell lines of leukemia; read-out: GI 50 RS4: 11 FLT3 (WT).
Excerpt: as §1, §2, §3, §4, §5, §6, §7, §8, §9

Test [10] concerns MOLM-13 (FLT3 ITD+/− mutant type). The test is described as follows: In vitro growth inhibition (GI50), MOLM-13. In kind it is cell-based, human. As to conditions: Homo sapiens, MOLM-13; Cell lines of leukemia; read-out: GI 50 MOLM-13 FLT3 (ITD+/−).
Excerpt: as §1, §2, §3, §4, §5, §6, §7, §8, §9

Take `CC(C)(C)c1cc(NC(=O)Nc2ccc(-c3cn4c(n3)sc3cc(OCCN5CCOCC5)ccc34)cc2)no1` [AC220, N-(5-tert-butyl-isoxazol-3-yl)-N′-{4-[7-(2-morpholin-4-yl-ethoxy)imidazo[2,1-b][1,3]benzothiazol-2-yl]phenyl}urea dihydrochloride, reference compound]: the GI50 in test [1], in test [2] and in test [3] was > 1 µM in each case.
Regarding `O=C(Nc1ccc(-n2cnc3ccccc32)cc1)Nc1ccon1` [Compound 1, 1-(4-benzimidazol-1-yl-phenyl)-3-isoxazol-3-yl-urea], the GI50 in test [4], in [5], in [6], in test [1], in test [7] and in test [8] was > 1 µM in each case. Besides, the GI50 in test [9], in [2], in test [3] and in [10] was > 1 µM in each case.
Take `Cc1cc(NC(=O)Nc2ccc(-n3cnc4ccccc43)cc2)no1` [Compound 2, 1-(4-benzimidazol-1-yl-phenyl)-3-(5-methyl-isoxazol-3-yl)-urea]: the GI50 in [4], in [5], in [6], in [1], in test [7] and in [8] was > 1 µM each time. The GI50 in test [9], in test [2], in test [3] and in [10] was > 1 µM throughout.
Consider `CC(C)(C)c1cc(NC(=O)Nc2ccc(-n3cnc4ccccc43)cc2)no1` [Compound 3, 1-(4-benzimidazol-1-yl-phenyl)-3-(5-tert-butyl-isoxazol-3-yl)-urea], for which the GI50 in [4] is > 1 µM; in [5], > 1 µM; in [6], > 1 µM; in [1] it was > 1 µM; in [7], 0.0001 to 0.001 µM; in test [8], > 1 µM. Besides, the GI50 was > 1 µM in [9], > 1 µM in test [2], > 1 µM in test [3] and 0.0001 to 0.001 µM in [10].
As to `COc1ccc2c(c1)ncn2-c1ccc(NC(=O)Nc2cc(C(C)(C)C)on2)cc1` [Compound 5, 1-(5-tert-butyl-isoxazol-3-yl)-3-[4-(5-methoxyl-benzimidazol-1-yl)-phenyl]-urea], the GI50 in test [4] is > 1 µM; in [5] it was > 1 µM; in test [6] it was > 1 µM; in [1], > 1 µM; in test [7], 0.0001 to 0.001 µM; in [8], > 1 µM. The GI50 in test [9] was > 1 µM; in test [2] it was > 1 µM; in test [3], > 1 µM; in [10], 0.0001 to 0.001 µM.
For the compound `CC(C)(C)c1cc(NC(=O)Nc2ccc(-n3cnc4cc(OCCOCCO)ccc43)cc2)no1` [Compound 14, 1-(5-tert-butyl-isoxazol-3-yl)-3-(4-{5-[2-(2-hydroxy-ethoxyl)-ethoxyl]-benzimidazol-1-yl}-phenyl)-urea], the GI50 in test [4] is > 1 µM; in [5], > 1 µM; in [6], > 1 µM; in test [1], > 1 µM; in test [7], 0.0001 to 0.001 µM; in [8], 0.1 to 1 µM. Further, the GI50 in [9] is 0.1 to 1 µM; in [2], > 1 µM; in [10] it was 0.0001 to 0.001 µM.
For the compound `COCCOc1ccc2c(c1)ncn2-c1ccc(NC(=O)Nc2cc(C(C)(C)C)nn2C)cc1` [Compound 101, 1-(5-tert-butyl-2-methyl-2H-pyrazol-3-yl)-3-{4-[5-(2-methoxyl-ethoxyl)-benzimidazol-1-yl]-phenyl}urea], the GI50 in [4] is > 1 µM; in test [5] it was > 1 µM; in test [6], > 1 µM; in test [7], 0.0001 to 0.001 µM; in [9], > 1 µM; in test [2] it was > 1 µM. In addition, the GI50 in test [3] was > 1 µM; in test [10], 0.0001 to 0.001 µM.
In the case of `Cn1nc(C(C)(C)C)cc1NC(=O)Nc1ccc(-n2cnc3cc(OCCN4CCOCC4)ccc32)cc1` [Compound 102], the GI50 in [4] was > 1 µM; in test [5], > 1 µM; in test [6], > 1 µM; in test [7] it was 0.0001 to 0.001 µM; in test [9], > 1 µM; in test [2], > 1 µM. For the same compound, the figures for the GI50 in test [3] and in test [10] were > 1 µM and 0.0001 to 0.001 µM, respectively.
For the compound `Cc1cc(N)nn1C(=O)Nc1ccc(-n2cnc3ccccc32)cc1` [Compound 113, 3-amino-5-methylpyrazol-1-carboxylic acid (4-benzimidazol-1-yl-phenyl)-amide], the GI50 in [4], in test [5], in [6], in test [1], in [8] and in [9] was > 1 µM each time. Also, the GI50 in [2] and in test [3] was > 1 µM each time.
